# Reference: patent US12611415B2, “Methods and compounds for treatment of metabolic disease” (Monash University, priority 2019, dated 2026)
# Assays:
# [1] = system: LECs from adult human skin (HMLEC-dLyAd); assay: Lymphatic endothelial cell (LEC) migration scratch assay with HFD-lymph; type: cell-based; conditions: 2% HFD-lymph; celecoxib 20 μM, MAZ51 5 μM
# Method: LECs from adult human skin (HMLEC-dLyAd) were obtained from Lonza (Australia) at the 3rd passage. Cells were thawed and expanded in a T-75 flask at a minimum density of 500,000 cells per flask. Cells were grown in EGM-2MV BulletKit™ medium (CC-3162, Lonza, Australia), which consisted of EBM-2 basal medium supplemented with an EGM-2 SingleQuots™ kit (Lonza, Australia). Flasks were incubated at 37° C. and 5% CO2, and media was changed 24 h after seeding and then every 48 h. Cells were grown to 70-80% confluence and split every 4-5 days. For all experiments, cells were seeded onto plates or coverslips pre-coated with rat tail collagen Type I (50 μg/ml) for 1 h at 37° C. Cells were allowed to grow to 100% confluence (which typically occurred 1.5-2 days after seeding in a cell culture plate) prior to the start of experiments.
# Once the LECs reached confluence, the impact of lymph fluid on LEC migration was assessed using a standard scratch assay. […]
# Images taken at several time points after wounding (0, 12 and 24 hours) were analyzed using the Fiji distribution of ImageJ to determine the rate of LEC migration over the area of the scratched wound. To enable quantification of the area of the scratch wound, the brightness and contrast of the images was first adjusted to improve the visibility. An outline of the wound was manually drawn and the area of the wound was quantified at each time point. […]
# VEGF receptor (VEGFR)-3 = target: T1, VEGF receptor (VEGFR)-3 (Homo sapiens, UniProt P35916); conditions: endothelial cell lines, including cultured lymphatic endothelial cell lines; cited from earlier work
# T1 construct: host or cells: endothelial cell lines, including cultured lymphatic endothelial cell lines
# T1 sequence (P35916 25-1363): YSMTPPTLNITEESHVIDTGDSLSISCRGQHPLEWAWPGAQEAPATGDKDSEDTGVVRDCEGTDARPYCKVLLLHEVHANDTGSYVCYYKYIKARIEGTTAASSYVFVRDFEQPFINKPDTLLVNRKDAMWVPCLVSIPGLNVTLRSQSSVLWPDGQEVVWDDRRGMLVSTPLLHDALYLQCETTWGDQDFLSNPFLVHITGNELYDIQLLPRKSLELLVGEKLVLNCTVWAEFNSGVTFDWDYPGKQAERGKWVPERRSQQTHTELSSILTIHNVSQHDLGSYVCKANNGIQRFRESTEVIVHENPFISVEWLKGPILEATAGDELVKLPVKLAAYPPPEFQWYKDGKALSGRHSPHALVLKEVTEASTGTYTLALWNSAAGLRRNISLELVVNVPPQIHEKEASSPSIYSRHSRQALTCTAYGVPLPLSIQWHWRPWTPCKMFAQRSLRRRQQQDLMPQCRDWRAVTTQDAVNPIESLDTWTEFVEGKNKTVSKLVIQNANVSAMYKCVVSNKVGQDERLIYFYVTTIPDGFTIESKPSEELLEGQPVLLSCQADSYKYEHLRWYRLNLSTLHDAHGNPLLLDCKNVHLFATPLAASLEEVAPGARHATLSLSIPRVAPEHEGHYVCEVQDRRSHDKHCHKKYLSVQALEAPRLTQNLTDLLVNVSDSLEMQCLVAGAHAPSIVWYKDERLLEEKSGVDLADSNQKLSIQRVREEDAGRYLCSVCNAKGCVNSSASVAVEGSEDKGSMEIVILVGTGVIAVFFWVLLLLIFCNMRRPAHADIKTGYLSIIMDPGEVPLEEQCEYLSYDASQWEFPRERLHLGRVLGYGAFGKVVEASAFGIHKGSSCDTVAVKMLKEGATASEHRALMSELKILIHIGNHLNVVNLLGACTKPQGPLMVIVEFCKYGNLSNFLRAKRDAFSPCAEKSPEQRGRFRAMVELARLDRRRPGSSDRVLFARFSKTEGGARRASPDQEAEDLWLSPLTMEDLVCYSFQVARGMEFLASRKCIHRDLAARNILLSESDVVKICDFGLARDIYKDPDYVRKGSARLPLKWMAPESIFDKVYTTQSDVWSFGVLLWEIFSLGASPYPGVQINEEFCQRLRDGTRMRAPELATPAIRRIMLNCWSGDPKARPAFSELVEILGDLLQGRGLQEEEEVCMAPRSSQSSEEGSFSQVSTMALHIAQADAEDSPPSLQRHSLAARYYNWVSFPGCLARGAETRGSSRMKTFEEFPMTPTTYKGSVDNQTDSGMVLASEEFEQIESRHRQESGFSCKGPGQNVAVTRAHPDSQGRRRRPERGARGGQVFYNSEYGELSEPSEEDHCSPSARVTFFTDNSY
smiles,measurement,setting,value
CN(C)c1ccc(/C=C2/C(=O)Nc3ccccc32)c2ccccc12 [MAZ51],LEC migration induced by HFD-lymph,[1],inhibited
same,VEGF-C-dependent and VEGF-C-independent VEGFR-3 phosphorylation,VEGF receptor (VEGFR)-3,potently inhibit
